One data set relates to blood platelets. The data set is described as follows: Activity to inhibit the aggregation of blood platelets (collagen, ex vivo after oral administration). Type of data set: in vivo, rat (male Wistar-ST strain). The settings on record: Rattus norvegicus, Platelet; 10 mg/Kg oral, 1 hour after administration; collagen 7 to 10 μg/ml; read-out: Inhibitory rate (blood platelet aggregation). The method, then: Male Wistar-ST strain rats of an average body weight of 250 g were used, a group consisting of 8 animals. The test compound indicated in the following Table 1 was orally administered to rats in the form of a suspension in a 1% tragacanth aqueous solution at 4 ml/Kg (the test compound 10 mg/Kg).
One hour after the administration, blood samples were obtained from the carotid artery by means of a cannule. […] Tubes were turned upside-down and then subjected to centrifugation at 200×g over 15 minutes to assign the supernatant as a platelet-rich plasma (PRP). The residue was further centrifuged at […] over 15 minutes to assign the supernatant as a platelet-poor plasma (PPP). These supernatants were applied for determining the ability to aggregate blood platelets. […] As an aggregation inducing agent, collagen (availale from Hormon-chemie A.G.) was used at a concentration of 7 to 10 μg/ml.
Inhibitory rate to aggregate blood platelets was calculated according to the following equation: [formula] A: […] in the group to which the 1% tragacanth solution alone was given (Control)
B: Aggregation rate in the group to which the tragacanth solution of the test compound was given.

The nature of a further data set: in vivo. The settings on record: rat, po, rats.
For a further data set, the system named is Thoracic aorta. The data set is described as follows: Calcium antagonistic activity (relaxation of thoracic aorta). As to conditions: Rattus norvegicus; final concentration 10 μM; 10 mM CaCl2. It counts as cell-based, rat (male Wistar strain). As for the experimental part:
Thoracic aorta was removed from male Wistar strain rats with a body weight of 350 g to 450 g and then spiral-shaped pieces of aorta were prepared therefrom. […] Thereafter, samples were further stabilized in Krebs-Henseleit solution containing no CaCl2 over 1 hour and then in a 80 mM KCl nutritive liquid wherein NaCl was exchanged with an equimolar KCl (depolarized liquid) over a further one hour. Then, samples were washed with the depolarized liquid and loaded with a static tension of 1.0 g. When CaCl2 was added to the nutritive liquid so as to reach a final concentration of 10 mM, tension was produced in samples and, after 15-20 minutes from the addition of CaCl2, the maximum tension was obtained. At this point, test compounds were applied and relaxing activity of test compounds was evaluated. Tension was determined in equal dimension.
Relaxation rate was calculated according to the following equation: [formula] A: Maximum tension generated B: Generated tension retained after administration of test compound
All test compounds were given in the form of a solution in dimethyl sulfoxide at a dose of 0.1 ml, whereupon a final concentration of dimethyl sulfoxide itself was adjusted to 0.5 V/V %.

Another data set relates to carotid artery. The data set is described as follows: Action on blood flow volume in carotid artery. It counts as in vivo, rabbit (male New Zealand White). The method, then:
(§1) Male New Zealand White rabbits (body weight of 2.8 Kg to 3.5 Kg) were used and anesthetized with pentobarbital sodium. Blood flow volumes in the carotid artery and femoral artery were measured and recorded via a non-blood observing type of a probe for measuring blood flow volume. Also, blood pressure in femoral artery was simultaneously measured and recorded with measurement of blood flow.
(§2) The compound of this invention was dissolved in an aqueous solution containing 1% tartaric acid and 1% dimethylacetamide, while papaverine hydrochloride dissolved in 0.9% physiological saline. These test compounds were intravenously given through a residual polyethylene tube within femoral vein.

Data set [1] deals with femoral artery. The data set is described as follows: Action on blood flow volume in femoral artery. Type of data set: in vivo, rabbit (male New Zealand White). The method, then:
as §1, §2

The test system of data set [2] is femoral artery. The data set is described as follows: Action on blood pressure in femoral artery. It counts as in vivo, rabbit (male New Zealand White). The method, then:
as §1, §2

Another data set deals with candate nucleus. The data set is described as follows: Activity to increase topical cerebral blood flow, candate nucleus (heat clearance method). It counts as in vivo, rabbit (male New Zealand White). As to conditions: change in blood flow expressed in terms of voltage. As for the experimental part: as §2
(§3) Physiol. Scand., 67, 1 (1966); "Kokyu to Junkan" (in Japanese), 15, 435 (1967); the Journal of the Pharmacological Society of Japan, 71, 709 (1975)]. Simultaneously, blood pressure in femoral artery was also determined. Preparation and administration of test compounds were carried out in the same manner as in the above item (6).

A further data set has as its system cerebral cortex. The data set is described as follows: Activity to increase topical cerebral blood flow, cerebral cortex (heat clearance method). The settings on record: change in blood flow expressed in terms of voltage. Type of data set: in vivo, rabbit (male New Zealand White). The method, then: as §2, §3
Data set [3] concerns femoral artery. The data set is described as follows: Blood pressure in femoral artery, topical cerebral blood flow test. It counts as in vivo, rabbit (male New Zealand White). The method, then: as §2, §3
In the next data set the test system is mice. The data set is described as follows: Anti-thrombotic activity: arachidonic acid-induced mortality in mice. Type of data set: in vivo, mouse (male ICR-JCL strain). As to conditions: for Survival time of dead mice: arachidonic acid 100 mg/Kg i.v.; for Mortality: arachidonic acid 100 mg/Kg i.v. after 1 hour. The method, then:
(§4) Male ICR-JCL strain mice with an average body weight of about 25 g and male New Zealand White rabbits with an average body weight of about 3 Kg were used.
Where mice were used as experimental animals, a suspension of the test compound indicated in Table 3 in a 1% tragacanth aqueous solution was orally administered to animals at 20 ml/Kg. One hour after the administration, an arachidonic acid (PL-biochemical Co., Inc.) solution dissolved in a 0.1M sodium carbonate aqueous solution was intravenously given at 100 mg/Kg. Evaluation of activity was effected with the time from the administration of arachidonic acid up to the death of animals as well as mortality.

In a further data set the test system is rabbits. The data set is described as follows: Anti-thrombotic activity: arachidonic acid-induced mortality in rabbits. Type of data set: in vivo, rabbit (male New Zealand White). As to conditions: of 4 rabbits. As for the experimental part: as §4
Where rabbits were used as experimental animals, a suspension of the test compound in a 1% tragacanth aqueous solution was orally administered to animals at 5 ml/Kg. Two hours after the administration, an arachidonic acid solution dissolved in a 0.1M potassium carbonate solution was injected into pinna vein at 1.4 mg/Kg.
Evaluation of activity was effected with mortality at the time when arachidonic acid given. If survived at the first administration of arachidonic acid, arachidonic acid was administered after 6 hours, 24 hours, 48 hours and 72 hours from the administration of the test compound, respectively, and mortality was determined in respective cases.

Structures can show the parent of a compound that is named as a salt.

In general, LD50 refers to the dose expected to kill half of the subjects tested. Read a low LD50 as a more toxic substance.

Consider `CC(C)CNc1nnc(-c2ccccc2)c2ccccc12` [compound 4], for which, in the data set with blood platelets, the inhibition at 10 mg/kg came to 0%.
On the same count and under the same terms, with `CC(C)Nc1nnc(-c2ccccc2)c2ccccc12` [compound 2] the figure was 7.1%.
With `CCC(C)CNc1nnc(-c2ccccc2)c2ccccc12` (stereo not shown) [compound 9], the inhibition at 10 mg/kg in the data set on blood platelets amounted to 79.2%. Further, the LD50 in the data set “in vivo” came out at 2180 mg/kg.
For `CCC(CC)CNc1nnc(-c2ccccc2)c2ccccc12` [compound 15], the inhibition at 10 mg/kg in the data set on blood platelets turned out to be 14.6%.
As for `CC(C)(C)CCNc1nnc(-c2ccccc2)c2ccccc12` [compound 17], in the data set on blood platelets, the inhibition at 10 mg/kg amounted to 17.3%.
Regarding `CCCCCCNc1nnc(-c2ccccc2)c2ccccc12` [compound 14], the inhibition at 10 mg/kg in the data set on blood platelets stood at 15.6%.
For `COc1ccc(Cc2nccc3cc(OC)c(OC)cc23)cc1OC` [Papaverine hydrochloride, papaverine hydrochloride, reference compound], the inhibition at 10 µM with Thoracic aorta worked out at 0%. Moreover, in the data set on carotid artery (0.5 mg/Kg i.v.), the “Blood flow volume in carotid artery, A: Before administration” value amounted to 18.6 mL/min; the “Blood flow volume in carotid artery, B: After administration” value turned out to be 38.7 mL/min; the “Blood flow volume in carotid artery, C: Increase degree” value is 20.1 mL/min; the “Blood flow volume in carotid artery, D: Increase rate” value came out at 108.3%. In the data set on carotid artery (1.0 mg/Kg i.v.), the “Blood flow volume in carotid artery, A: Before administration” value came to 19.3 mL/min; the “Blood flow volume in carotid artery, B: After administration” value was found to be 26.3 mL/min; the “Blood flow volume in carotid artery, C: Increase degree” value is 7.0 mL/min; the “Blood flow volume in carotid artery, D: Increase rate” value is 33.2%. In the data set on femoral artery [1] (0.5 mg/Kg i.v.), the “Blood flow volume in femoral artery, A: Before administration” value was determined as 16.8 mL/min and the “Blood flow volume in femoral artery, B: After administration” value stood at 23.0 mL/min. Further, in the data set with femoral artery [1] (0.5 mg/kg i.v.), the “Blood flow volume in femoral artery, C: Increase degree” value was found to be 6.1 mL/min and the “Blood flow volume in femoral artery, D: Increase rate” value is reported as 40.3%. Further, in the data set with femoral artery [1] (1.0 mg/Kg i.v.), the “Blood flow volume in femoral artery, A: Before administration” value was determined as 30.1 mL/min and the “Blood flow volume in femoral artery, B: After administration” value worked out at 40.0 mL/min. In the data set on femoral artery [1] (1.0 mg/kg i.v.), the “Blood flow volume in femoral artery, C: Increase degree” value worked out at 9.8 mL/min and the “Blood flow volume in femoral artery, D: Increase rate” value came to 32.7%. Further, in the data set with femoral artery [2] (0.5 mg/kg i.v.), the “Blood pressure in femoral artery, A: Before administration” value was determined as 94.8 mmHg; the “Blood pressure in femoral artery, B: After administration” value came to 82.4 mmHg; the “Blood pressure in femoral artery, E: Lowering degree” value stood at 12.4 mmHg; the “Blood pressure in femoral artery, F: Lowering rate” value came out at 13.2%. In the data set with femoral artery [2] (1.0 mg/kg i.v.), the “Blood pressure in femoral artery, A: Before administration” value came to 91.8 mmHg; the “Blood pressure in femoral artery, B: After administration” value came out at 68.8 mmHg; the “Blood pressure in femoral artery, E: Lowering degree” value is recorded as 23.1 mmHg; the “Blood pressure in femoral artery, F: Lowering rate” value was 25.3%. In the data set with candate nucleus (0.3 mg/Kg i.v.), the “Increase in topical blood flow volume, Candate nucleus” value is given as 0.19 ± 0.04 Δ μV. For the same compound, the “Increase in topical blood flow volume, Candate nucleus” value in the data set with candate nucleus (1 mg/Kg i.v.) is 0.35 ± 0.07 Δ μV. Besides, in the data set with cerebral cortex (0.3 mg/Kg i.v.), the “Increase in topical blood flow volume, Cerebral cortex” value was 0.57 ± 0.11 Δ μV. Further, the “Increase in topical blood flow volume, Cerebral cortex” value with cerebral cortex (1 mg/Kg i.v.) is listed as 1.05 ± 0.21 Δ μV. In the data set on femoral artery [3] (0.3 mg/Kg i.v.), the “Lowering of blood pressure in femoral artery” value came to 15.0 ± 1.2%. Also, the “Lowering of blood pressure in femoral artery” value with femoral artery [3] (1 mg/Kg i.v.) turned out to be 20.8 ± 3.4%.
For `CCCCNc1nnc(-c2ccccc2)c2ccccc12` [compound 3], the inhibition at 10 mg/kg with blood platelets stood at 0%.
On to `CC(C)C(C)Nc1nnc(-c2ccccc2)c2ccccc12` (stereo not shown) [compound 10], for which the inhibition at 10 mg/kg in the data set on blood platelets amounted to 54.1%. This compound showed an LD50 in the data set “in vivo” of 2530 mg/kg.
In the case of `CCCNc1nnc(-c2ccccc2)c2ccccc12` [compound 1], the inhibition at 10 mg/kg in the data set with blood platelets stood at 27.6%.
Take `CCC(C)(C)Nc1nnc(-c2ccccc2)c2ccccc12` [compound 12]: in the data set on blood platelets, the inhibition at 10 mg/kg turned out to be 0%.
With `CCCCCCCNc1nnc(-c2ccccc2)c2ccccc12` [compound 19], the inhibition at 10 mg/kg in the data set with blood platelets amounted to 0%.
The same measure, in the same setting: with `CCC(C)Nc1nnc(-c2ccccc2)c2ccccc12` (stereo not shown) [compound 5] the figure was 0%; with `CCCC(C)Nc1nnc(-c2ccccc2)c2ccccc12` (stereo not shown) [compound 8], 0%; with `CC(C)CCNc1nnc(-c2ccccc2)c2ccccc12` [compound 11], 24%.
Regarding `CCCCCCCCNc1nnc(-c2ccccc2)c2ccccc12` [compound 20], the inhibition at 10 mg/kg in the data set with blood platelets was determined as 0%.
The same measure, in the same setting: with `c1ccc(-c2nnc(NC3CCCCC3)c3ccccc23)cc1` [compound 18] the figure was 0%.
On the same count and under the same terms, with `CC(C)CC(C)Nc1nnc(-c2ccccc2)c2ccccc12` (stereo not shown) [compound 16] the figure was 0%; with `c1ccc(-c2nnc(NC3CCCC3)c3ccccc23)cc1` [compound 13], 0%.
Take `Clc1ccccc1CN1CCc2sccc2C1` [Ticlopidine, ticlopidine, reference compound]: the “Survival time of dead mice” value came out at 81 ± 13 s in the data set on mice (300 mg/Kg oral) and 128 ± 18 s in the data set on mice (1000 mg/Kg oral). Further, the Mortality in the data set on mice (300 mg/Kg oral) and in the data set with mice (1000 mg/Kg oral) was 100% throughout. The “Mortality (number of rabbits)” value with rabbits (30 mg/Kg oral, 2 hrs. after administration) came to 4; in the data set with rabbits (100 mg/Kg oral, 2 hrs. after administration), 3; with rabbits (100 mg/Kg oral, 6 hrs. after administration), 1.
For the compound `CCCCCNc1nnc(-c2ccccc2)c2ccccc12` [compound 7], the inhibition at 10 mg/kg in the data set with blood platelets is 6.2%. In “in vivo”, this compound showed an LD50 of 1780 mg/kg.
Regarding `CC(C)(C)Nc1nnc(-c2ccccc2)c2ccccc12` [compound 6], the inhibition at 10 mg/kg in the data set with blood platelets came out at 0%.
